According to patent US10131652B2, “Pyrimidinyloxy benzene derivatives as herbicides” (E. I. DU PONT DE NEMOURS AND COMPANY, priority 2014, dated 2018):

Assays:
Assay type in all cases: in vivo
[1] = system: Italian ryegrass (Lolium multiflorum); assay: Test B pre-/postemergence plant response
From the text: (§1) Seeds of plant species selected from bamyardgrass (Echinochloa crus-galli), kochia (Kochia scoparia), ragweed (common ragweed, Ambrosia elatior), Italian ryegrass (Lolium multiflorum), large (Lg) crabgrass (Digitaria sanguinalis), giant foxtail (Setaria faberii), momingglory (Ipomoea spp.), pigweed (Amaranthus retroflexus), velvetleaf (Abutilon theophrasti), wheat (Triticum aestivum), and corn (Zea mays) were planted into a blend of loam soil and sand and treated preemergence with a directed soil spray using test chemicals formulated in a non-phytotoxic solvent mixture which included a surfactant. At the same time, plants selected from these crop and weed species and also blackgrass (Alopecurus myosuroides), and galium (catchweed bedstraw, Galium aparine) were planted in pots containing the same blend of loam soil and sand and treated with postemergence applications of test chemicals formulated in the same manner. Plants ranged in height from 2 to 10 cm and were in the one- to two-leaf stage for the postemergence treatment. Treated plants and untreated controls were maintained in a greenhouse for approximately 10 days, after which time all treated plants were compared to untreated controls and visually evaluated for injury. Plant response ratings, summarized in Table B, are based on a 0 to 100 scale where 0 is no effect and 100 is complete control. A dash (-) response means no test result.

[2] = system: barnyardgrass (Echinochloa crus-galli); assay: Test B pre-/postemergence plant response
From the text: as §1

corn (Zea mays) = assay: Test B pre-/postemergence plant response
From the text: as §1

[3] = system: giant foxtail (Setaria faberii); assay: Test B pre-/postemergence plant response
From the text: as §1

kochia (Kochia scoparia) = assay: Test B pre-/postemergence plant response
From the text: as §1

[4] = system: pigweed (Amaranthus retroflexus); assay: Test B pre-/postemergence plant response
From the text: as §1

[5] = system: ragweed (common ragweed, Ambrosia elatior); assay: Test B pre-/postemergence plant response
From the text: as §1

[6] = system: wheat (Triticum aestivum); assay: Test B pre-/postemergence plant response
From the text: as §1

[7] = system: blackgrass (Alopecurus myosuroides); assay: Test B postemergence plant response
How it was run: (§2)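 Visual injury rating, 0–100 (0 = no effect, 100 = complete control), vs untreated controls ~10 days after postemergence spray; greenhouse; potted loam soil/sand; plants 2–10 cm, 1–2 leaf stage.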

[8] = system: galium (catchweed bedstraw, Galium aparine); assay: Test B postemergence plant response
How it was run: as §2

[9] = system: barnyardgrass (Echinochloa crus-galli); assay: Test C flooded paddy test plant response; conditions: Flood, 250 g ai/ha; scale of 0 to 100 where 0 is no effect and 100 is complete control; 13 to 15 days
Experimental: (§3) Plant species in the flooded paddy test selected from rice (Oryza sativa), small-flower umbrella sedge (Cyperus difformis), ducksalad (Heteranthera limosa), and bamyardgrass (Echinochloa crus-galli) were grown to the 2-leaf stage for testing. At time of treatment, test pots were flooded to 3 cm above the soil surface, treated by application of test compounds directly to the paddy water, and then maintained at that water depth for the duration of the test. Treated plants and controls were maintained in a greenhouse for 13 to 15 days, after which time all species were compared to controls and visually evaluated. Plant response ratings, summarized in Table C, are based on a scale of 0 to 100 where 0 is no effect and 100 is complete control. A dash (-) response means no test result.

[10] = system: ducksalad (Heteranthera limosa); assay: Test C flooded paddy test plant response; conditions: Flood, 250 g ai/ha; scale of 0 to 100 where 0 is no effect and 100 is complete control; 13 to 15 days
Experimental: as §3

rice (Oryza sativa) = assay: Test C flooded paddy test plant response; conditions: Flood, 250 g ai/ha; scale of 0 to 100 where 0 is no effect and 100 is complete control; 13 to 15 days
Experimental: as §3

[11] = system: small-flower umbrella sedge (Cyperus difformis); assay: Test C flooded paddy test plant response; conditions: Flood, 250 g ai/ha; scale of 0 to 100 where 0 is no effect and 100 is complete control; 13 to 15 days
Experimental: as §3

[12] = 125 g ai/ha, postemergence, 0 to 100 scale, 0 no effect, 100 complete control
[13] = Postemergence, 500 g ai/ha, 0 to 100 scale (0 no effect, 100 complete control)
[14] = Preemergence, 125 g ai/ha, 0 to 100 scale where 0 is no effect and 100 is complete control
[15] = Preemergence, 500 g ai/ha, 0 to 100 scale where 0 is no effect and 100 is complete control
[16] = 31 g ai/ha, Postemergence, 0 to 100 scale, 0 no effect, 100 complete control
[17] = Preemergence, 31 g ai/ha, 0 to 100 scale (0 no effect, 100 complete control)

SMILES	Plant response rating, Ryegrass, Italian [1, 12]	Plant response rating, Ryegrass, Italian [1, 14]	Plant response rating, Barnyardgrass [2, 12]	Plant response rating, Barnyardgrass [2, 14]	Plant response rating, Corn (corn (Zea mays); [12])	Plant response rating, Foxtail, Giant [3, 12]	Plant response rating, Foxtail, Giant [3, 14]	Plant response rating, Kochia (kochia (Kochia scoparia); [12])	Plant response rating, Kochia (kochia (Kochia scoparia); [14])	Plant response rating, Pigweed [4, 12]	Plant response rating, Pigweed [4, 14]	Plant response rating, Ragweed [5, 12]	Plant response rating, Ragweed [5, 14]	Plant response rating, Wheat [6, 12]	Plant response rating, Blackgrass [7, 12]	Plant response rating, Galium [8, 12]	Barnyardgrass plant response rating [9]	Ducksalad plant response rating [10]	Rice plant response rating (rice (Oryza sativa))	Sedge, Umbrella plant response rating [11]	other results
CC(C)(C)c1cc(-c2ccccc2Oc2ncc(Cl)cn2)no1 [Compound 59]	0	0	10	0	0	10	10	0	0	40	0	0	0	0	0	40	0	0	0	0	Plant response rating, Ryegrass, Italian [1, 13]: 0; Plant response rating, Ryegrass, Italian [1, 15]: 0; Plant response rating, Barnyardgrass [2, 13]: 10; Plant response rating, Barnyardgrass [2, 15]: 10; Plant response rating, Corn (corn (Zea mays); [13]): 10; Plant response rating, Foxtail, Giant [3, 13]: 50; Plant response rating, Foxtail, Giant [3, 15]: 60; Plant response rating, Kochia (kochia (Kochia scoparia); [13]): 20; Plant response rating, Kochia (kochia (Kochia scoparia); [15]): 0; Plant response rating, Pigweed [4, 13]: 50; Plant response rating, Pigweed [4, 15]: 30; Plant response rating, Ragweed [5, 13]: 0; Plant response rating, Ragweed [5, 15]: 0; Plant response rating, Wheat [6, 13]: 10; Plant response rating, Blackgrass [7, 13]: 40; Plant response rating, Galium [8, 13]: 90
Cc1nc(-c2ccccc2Oc2ncc(Cl)cn2)co1 [Compound 70]	0	0	0	0	0	0	0	0	0	20	0	0	0	0	0	0	0	0	0	0	Plant response rating, Ryegrass, Italian [1, 16]: 0; Ryegrass, Italian plant response rating [1, 17]: 0; Plant response rating, Barnyardgrass [2, 16]: 0; Barnyardgrass plant response rating [2, 17]: 0; Plant response rating, Corn (corn (Zea mays); [16]): 0; Plant response rating, Foxtail, Giant [3, 16]: 0; Foxtail, Giant plant response rating [3, 17]: 0; Plant response rating, Kochia (kochia (Kochia scoparia); [16]): 0; Kochia plant response rating (kochia (Kochia scoparia); [17]): 0; Plant response rating, Pigweed [4, 16]: 10; Pigweed plant response rating [4, 17]: 0; Plant response rating, Ragweed [5, 16]: 0; Ragweed plant response rating [5, 17]: 0; Plant response rating, Wheat [6, 16]: 0; Plant response rating, Blackgrass [7, 16]: 0; Plant response rating, Galium [8, 16]: 0
CC(C)n1cnc(-c2ccccc2Oc2ncc(Cl)cn2)n1 [Compound 73]	0	0	0	0	0	0	0	0	0	10	0	0	0	0	0	10	0	0	0	0	Plant response rating, Ryegrass, Italian [1, 16]: 0; Ryegrass, Italian plant response rating [1, 17]: 0; Plant response rating, Barnyardgrass [2, 16]: 0; Barnyardgrass plant response rating [2, 17]: 0; Plant response rating, Corn (corn (Zea mays); [16]): 0; Plant response rating, Foxtail, Giant [3, 16]: 0; Foxtail, Giant plant response rating [3, 17]: 0; Plant response rating, Kochia (kochia (Kochia scoparia); [16]): 0; Kochia plant response rating (kochia (Kochia scoparia); [17]): 0; Plant response rating, Pigweed [4, 16]: 0; Pigweed plant response rating [4, 17]: 0; Plant response rating, Ragweed [5, 16]: 0; Ragweed plant response rating [5, 17]: 0; Plant response rating, Wheat [6, 16]: 0; Plant response rating, Blackgrass [7, 16]: 0; Plant response rating, Galium [8, 16]: 0
